# Reference: paper PMC10233092, “Selective Janus kinase 1 inhibition resolves inflammation and restores hair growth offering a viable treatment option for alopecia areata” (Skin Health and Disease, 2023)
# Where “and” joins values, the source holds several entries; their conditions need not be identical. Equal entries are not always repeated.
# How the values were obtained:
# [1] = target: JAK1 (Homo sapiens, UniProt P23458); assay: JAK1 kinase inhibition, Calliper assay; assay type: biochemical; settings: physiological ATP concentration of 5 mM
# [2] = Basic pKa; assay type: physicochemical; settings: read-out: Basic pKa's
# Excerpt: TABLE 2 In vitro and in vivo DMPK properties of Cmpd A, B & C | column: In vitro mouse & physical chemical properties / Basic pKa's
# [3] = target: T1, JAK3 (Homo sapiens, UniProt P52333); assay: JAK3 kinase inhibition, Calliper assay; assay type: biochemical; settings: physiological ATP concentration of 5 mM
# T1 sequence (P52333 1-1124): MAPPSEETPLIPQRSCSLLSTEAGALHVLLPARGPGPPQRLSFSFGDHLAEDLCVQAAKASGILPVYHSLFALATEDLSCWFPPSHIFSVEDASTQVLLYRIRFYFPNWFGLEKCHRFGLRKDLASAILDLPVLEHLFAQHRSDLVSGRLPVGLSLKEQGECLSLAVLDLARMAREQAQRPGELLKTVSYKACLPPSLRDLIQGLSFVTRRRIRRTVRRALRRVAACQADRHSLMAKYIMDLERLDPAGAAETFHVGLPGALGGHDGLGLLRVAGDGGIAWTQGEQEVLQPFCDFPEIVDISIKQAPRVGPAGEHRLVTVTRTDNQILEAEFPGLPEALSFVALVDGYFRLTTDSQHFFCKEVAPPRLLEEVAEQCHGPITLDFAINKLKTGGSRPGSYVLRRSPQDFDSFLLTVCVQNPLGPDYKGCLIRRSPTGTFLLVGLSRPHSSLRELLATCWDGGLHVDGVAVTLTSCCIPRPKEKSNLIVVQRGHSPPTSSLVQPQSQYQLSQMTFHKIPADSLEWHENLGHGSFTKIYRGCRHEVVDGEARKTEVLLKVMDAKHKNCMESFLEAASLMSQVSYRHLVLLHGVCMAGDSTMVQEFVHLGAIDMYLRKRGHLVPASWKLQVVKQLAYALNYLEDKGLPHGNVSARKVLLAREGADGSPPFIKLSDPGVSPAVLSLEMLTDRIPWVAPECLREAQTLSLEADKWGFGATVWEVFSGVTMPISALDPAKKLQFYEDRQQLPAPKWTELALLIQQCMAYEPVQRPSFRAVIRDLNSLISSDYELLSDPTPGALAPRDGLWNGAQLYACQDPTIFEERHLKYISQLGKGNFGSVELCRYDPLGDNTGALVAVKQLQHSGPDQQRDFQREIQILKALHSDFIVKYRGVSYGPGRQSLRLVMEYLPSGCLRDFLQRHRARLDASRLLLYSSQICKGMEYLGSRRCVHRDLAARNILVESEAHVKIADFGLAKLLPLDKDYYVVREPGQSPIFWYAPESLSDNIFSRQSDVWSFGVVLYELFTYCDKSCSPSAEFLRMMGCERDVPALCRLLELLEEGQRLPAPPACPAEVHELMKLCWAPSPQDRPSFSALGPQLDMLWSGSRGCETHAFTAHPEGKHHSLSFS
# [4] = tested on: C3H/HeJ mouse model of AA; assay: Hair growth (Hair Index Score) in C3H/HeJ graft-induced AA mice; assay type: in vivo; settings: for hair growth, result in words: AA mice; for Hair index score (% area x score, 0 to 3): individual mice and mean±SD
# Description: Female C3H/HeJ graft‐induced mice were used as a preclinical model of Alopecia Areata (AA) according to previous publications.[45], [46], [47] Healthy C3H/HeJ and mice with fully developed AA (16–24 weeks after induction of disease) were monitored by means of body weight and hair index score on a weekly basis for 12 weeks, with free access to food and water (Healthy and AA groups, respectively).
# Hair growth was evaluated using a scoring index (Hair Index Score, HIS). A score from 0 to 3 (0 = no fur, 1 = stubble, short broken hairs, 2 = sparse, intermediate length hairs, 3 = normal length and density hairs) was taken times the surface area of the mouse with each respective score (dorsal area = 50%, ventral area = 50%).
# 12 mice were given once daily servings of Cmpd A for free eating at approximately 100 mg/kg (compound dissolved in 10 ml tap water and mixed with 5 g grounded R70 standard rodent chow from Lantmännen, Sweden) for 4 weeks. Typically, these servings were finished within 2 h. Six mice were terminated at the end of the treatment period, blood and skin taken for determination of drug concentration and skin sampled for histopathological evaluation (see below, these mice are representing the systemic JAK1 inhibition group in histopathological evaluations). Skin biopsies for mRNA expression and blood was sampled from the other 6 mice where after these mice were followed off treatment for an additional 8 weeks when terminal samples were taken (8w off Tx group).
# Another set of 6 mice were treated topically on the right side of their back with Cmpd B (0.1% cream formulation, Eucerin Aquaporin rich) for 12 weeks (local JAK1 inhibition group). Initially, twice weekly for 2 weeks followed by once weekly due to high tissue retention. Plasma exposure was evaluated during the course of the study as well as at termination when also skin was sampled for exposure, histopathological evaluation and mRNA expression.
# The aim of the study was to achieve similar skin exposures by both routes of administration but only systemic exposure after oral administration. […] Blood, skin, lymph nodes and spleens were collected at termination for evaluation of exposure, mRNA expression, histopathology (RNAScope) and cell differentials (flow cytometry). Untreated healthy and alopecic mice served as controls (n = 6).
# [5] = Mouse pharmacokinetics i.v./p.o.; assay type: in vivo; settings: plasma, male C57Bl6 mice; for clearance / Vd: iv, i.v. 0.5-1.0 mg/kg; for Vd: read-out: V ss; for bioavailability: po, p.o. 300 (A), 1.0 (B), 2.0 (C) mg/kg, read-out: Oral % F
# Description: Detailed description in Supplementary materials.
# Pharmacokinetics and evaluation of compound exposures: Male C57/BL mice were obtained from Si Bei Fu and weighed approximately 20-30 grams (7-9 weeks) at the start of the pharmacokinetic study. Animals had free access to food and water during the course of the experiment. Dose formulations were prepared on the study day and were stirred at room temperature for at least 15 minutes prior dosing and during the administration event. Cmpd A, B and C were dosed at 0.5-1 mg/kg i.v. and 1-300 mg/kg p.o. The dorsal metatarsal vein was used for sampling and typically 0.02 mL blood was withdrawn. Blood was taken at 2, 5, 15, 45 min, 2, 4, 8, 24 hours post the i.v. dose and at 15, 30 min, 1, 2, 4, 8, 24 hours post the p.o. dose. Blood of each sample was transferred into plastic micro centrifuge tubes containing 2 μL of 1000 IU Heparin-Na anticoagulant. These tubes were then inverted several times and placed on wet ice prior to centrifugation at 10,000 rpm for 2 minutes at 4°C in order to collect plasma. Plasma samples were stored at -75±15°C prior analysis. Compound concentrations were analyzed using a LC-MS/MS method (see below).
# Effective T1/2 equals Ln2 x Vss/CL.
# [6] = topical application (local exposure)
# Chain of JAK1 (P23458 whole entry, species assumed): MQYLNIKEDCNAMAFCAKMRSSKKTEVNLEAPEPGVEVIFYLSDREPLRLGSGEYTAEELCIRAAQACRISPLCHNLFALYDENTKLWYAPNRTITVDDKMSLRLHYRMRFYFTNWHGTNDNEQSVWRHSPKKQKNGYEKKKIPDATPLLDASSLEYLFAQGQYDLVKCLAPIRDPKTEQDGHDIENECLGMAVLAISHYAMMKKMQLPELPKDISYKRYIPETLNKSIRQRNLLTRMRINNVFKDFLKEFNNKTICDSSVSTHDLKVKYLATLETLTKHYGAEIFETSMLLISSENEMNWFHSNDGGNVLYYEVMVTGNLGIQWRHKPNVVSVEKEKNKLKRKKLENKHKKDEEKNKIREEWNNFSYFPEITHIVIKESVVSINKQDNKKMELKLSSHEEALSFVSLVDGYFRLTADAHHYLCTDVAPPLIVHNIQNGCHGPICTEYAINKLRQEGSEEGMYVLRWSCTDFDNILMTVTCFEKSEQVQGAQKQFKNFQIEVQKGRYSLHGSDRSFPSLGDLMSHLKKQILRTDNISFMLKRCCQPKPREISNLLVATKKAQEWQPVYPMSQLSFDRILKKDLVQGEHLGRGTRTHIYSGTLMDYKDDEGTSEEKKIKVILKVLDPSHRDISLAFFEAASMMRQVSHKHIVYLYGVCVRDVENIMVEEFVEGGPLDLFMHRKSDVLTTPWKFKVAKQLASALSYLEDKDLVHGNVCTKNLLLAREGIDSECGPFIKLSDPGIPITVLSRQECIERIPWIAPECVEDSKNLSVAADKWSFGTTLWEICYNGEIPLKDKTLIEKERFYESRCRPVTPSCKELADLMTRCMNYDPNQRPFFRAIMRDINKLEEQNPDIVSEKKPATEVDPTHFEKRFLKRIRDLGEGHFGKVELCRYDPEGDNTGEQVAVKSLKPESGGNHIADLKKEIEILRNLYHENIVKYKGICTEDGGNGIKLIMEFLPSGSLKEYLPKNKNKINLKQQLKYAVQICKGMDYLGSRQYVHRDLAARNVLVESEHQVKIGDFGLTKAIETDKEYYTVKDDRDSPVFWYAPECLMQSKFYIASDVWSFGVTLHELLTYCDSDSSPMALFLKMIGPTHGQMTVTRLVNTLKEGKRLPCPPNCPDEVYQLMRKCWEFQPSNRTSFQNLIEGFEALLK
smiles,measurement,setting,value
"Cc1cnc(Nc2cc(N3C[C@@H]4C[C@H]3CN4C)cnc2F)nc1N[C@H](C)[C@H](C)CO [Cmpd B, (2S,3R)-3-{[2-({2-fluoro-5-[(1S,4S)-5-methyl-2,5-diazabicyclo[2.2.1]heptan-2-yl]pyridin-3-yl}amino)-5-methylpyrimidin-4-yl]amino}-2-methylbutan-1-ol]",IC50,[1],9.3 nM
same,pKa,[2],8.6
same,IC50,[3],> 30000 nM
same,"hair growth, result in words",[4]; [6],did not restore hair growth
same,"Hair index score (% area x score, 0 to 3)","[4]; Local JAK1i (0.1% cream topical), treated side, w0, n=6",50 and 0
same,"Hair index score (% area x score, 0 to 3)","[4]; Local JAK1i (0.1% cream topical), treated side, w0, n=6, mean",17±26
same,"Hair index score (% area x score, 0 to 3)","[4]; Local JAK1i (0.1% cream topical), untreated side, w0, n=6",30 and 0 and 10
same,"Hair index score (% area x score, 0 to 3)","[4]; Local JAK1i (0.1% cream topical), untreated side, w0, n=6, mean",7±12
same,"Hair index score (% area x score, 0 to 3)","[4]; Local JAK1i, treated side, w1",50 and 0 and 100
same,"Hair index score (% area x score, 0 to 3)","[4]; Local JAK1i, treated side, w1, mean",25±42
same,"Hair index score (% area x score, 0 to 3)","[4]; Local JAK1i, treated side, w4",80 and 0 and 10 and 20
same,"Hair index score (% area x score, 0 to 3)","[4]; Local JAK1i, treated side, w4, mean",18±31
same,"Hair index score (% area x score, 0 to 3)","[4]; Local JAK1i, treated side, w6",200 and 0 and 50 and 30
same,"Hair index score (% area x score, 0 to 3)","[4]; Local JAK1i, treated side, w6, mean",47±78
same,"Hair index score (% area x score, 0 to 3)","[4]; Local JAK1i, treated side, w7",200 and 80 and 0 and 100
same,"Hair index score (% area x score, 0 to 3)","[4]; Local JAK1i, treated side, w7, mean",80±75
same,"Hair index score (% area x score, 0 to 3)","[4]; Local JAK1i, treated side, w8",200 and 0 and 50 and 100
same,"Hair index score (% area x score, 0 to 3)","[4]; Local JAK1i, treated side, w8, mean",58±80
same,"Hair index score (% area x score, 0 to 3)","[4]; Local JAK1i, treated side, w9",240 and 0 and 25 and 70 and 90
same,"Hair index score (% area x score, 0 to 3)","[4]; Local JAK1i, treated side, w9, mean",71±91
same,"Hair index score (% area x score, 0 to 3)","[4]; Local JAK1i, treated side, w11",240 and 0 and 100 and 80
same,"Hair index score (% area x score, 0 to 3)","[4]; Local JAK1i, treated side, w11, mean",70±94
same,"Hair index score (% area x score, 0 to 3)","[4]; Local JAK1i, untreated side, w1",40 and 0 and 100
same,"Hair index score (% area x score, 0 to 3)","[4]; Local JAK1i, untreated side, w1, mean",23±41
same,"Hair index score (% area x score, 0 to 3)","[4]; Local JAK1i, untreated side, w4",70 and 0 and 10 and 30
same,"Hair index score (% area x score, 0 to 3)","[4]; Local JAK1i, untreated side, w4, mean",18±28
same,"Hair index score (% area x score, 0 to 3)","[4]; Local JAK1i, untreated side, w6",170 and 0 and 10 and 20
same,"Hair index score (% area x score, 0 to 3)","[4]; Local JAK1i, untreated side, w6, mean",33±67
same,"Hair index score (% area x score, 0 to 3)","[4]; Local JAK1i, untreated side, w7",170 and 0
same,"Hair index score (% area x score, 0 to 3)","[4]; Local JAK1i, untreated side, w7, mean",28±69
same,"Hair index score (% area x score, 0 to 3)","[4]; Local JAK1i, untreated side, w8",170 and 0 and 10
same,"Hair index score (% area x score, 0 to 3)","[4]; Local JAK1i, untreated side, w8, mean",30±69
same,"Hair index score (% area x score, 0 to 3)","[4]; Local JAK1i, untreated side, w9",200 and 0 and 25
same,"Hair index score (% area x score, 0 to 3)","[4]; Local JAK1i, untreated side, w9, mean",37±80
same,"Hair index score (% area x score, 0 to 3)","[4]; Local JAK1i, untreated side, w11",200 and 0 and 30 and 50
same,"Hair index score (% area x score, 0 to 3)","[4]; Local JAK1i, untreated side, w11, mean",47±78
same,clearance,[5],38 mL/min/kg
same,Vd,[5],8.4 L/kg
same,bioavailability,[5],16%
COCC(C(=O)Nc1cccc2c(-c3nc(Nc4cccc(S(C)(=O)=O)c4F)ncc3F)c[nH]c12)N1CCN(C)CC1 (centres unmarked) [Cmpd C],IC50,[1],< 3 nM
same,pKa,[2],7.9
same,IC50,[3],> 30000 nM
same,"hair growth, result in words",[4]; oral daily servings (systemic exposure),induced hair growth
same,"hair growth, result in words",[4]; [6],did not
same,clearance,[5],26 mL/min/kg
same,Vd,[5],6.9 L/kg
same,bioavailability,[5],86%
